In patent US7230074B2, “Inhibitors of dipeptidyl-aminopeptidase type IV” (Trustees of Tufts College, priority 1991, dated 2007):

Tests used:
HIV-1-IIIB in A3.5 cells = assay: HIV-1 replication in A3.5 cells (p24 antigen ELISA); format: cell-based
Description: […]. The rational for these experiments comes from the reported connection between T-cell activation, IL-2 production, and HIV replication and expression of HIV proteins.
Cell lines used in the present studies include A3.5 cells (a monocyte cell line which is CD4+, HLA−DR+, and CD3—) and peripheral blood mononuclear cells (PBMC). The A3.5 cells grow continuously in culture without exogenous growth factors. PBMC cells require IL-2 for propagation in vitro. Cells were infected with HIV-1-IIIB at a multiplicity of infection (moi) of 5×10^−4 tissue culture infectious dose 50 (TCID50)/cell for both the A3.5 cells and the PMBC cells. Dilutions of inhibitor were made in RPMI-1640 and subsequently passed through a 0.22 um filter. At the start of each experiment, 1×10^6 cells/well, in 24-well plates, were infected with HIV-1-IIIB at the moi indicated above. Inhibitor was added simultaneously at the appropriate dilutions. All cultures were maintained at 5% CO2 and 37° C. in RPMI-1640 supplemented with penicillin, streptomycin, L-glutamine, hepes buffer, and 20% heat-inactivated fetal calf serum. Cell counts and viability were determined by trypan blue exclusion. Culture supernatants were harvested and assayed for HIV-1 p24 antigen by ELISA (NEN-DuPont, Boston, Mass.). Fresh media and inhibitor were added on each day. […]

[1] = Decomposition in aqueous solution; format: physicochemical; conditions: neutral pH, room temperature (20–25° C.)
Description: . Many dipeptide derivatives with a free N terminal amino group and a functional group (such as a difluoromethyl ketone) on the C-terminus are similarly unstable due to intramolecular reaction. A six member ring is formed between the amino and C-terminal functional groups and undergoes subsequent further reaction, such as hydrolysis.

[2] = biological target: T1, DP-IV isolated from porcine kidneys (Sus scrofa, UniProt P22411); assay: DP-IV inhibition, hydrolysis of Ala-Pro-p-nitroanilide; format: biochemical, pig; conditions: for Inhibition of / affinity for DP-IV (in words): N terminus blocked
T1 construct: DP-IV is purified from pig kidney cortex by the method of Barth et al; from tissue; host or cells: pig kidney cortex
T1 sequence (P22411 whole entry): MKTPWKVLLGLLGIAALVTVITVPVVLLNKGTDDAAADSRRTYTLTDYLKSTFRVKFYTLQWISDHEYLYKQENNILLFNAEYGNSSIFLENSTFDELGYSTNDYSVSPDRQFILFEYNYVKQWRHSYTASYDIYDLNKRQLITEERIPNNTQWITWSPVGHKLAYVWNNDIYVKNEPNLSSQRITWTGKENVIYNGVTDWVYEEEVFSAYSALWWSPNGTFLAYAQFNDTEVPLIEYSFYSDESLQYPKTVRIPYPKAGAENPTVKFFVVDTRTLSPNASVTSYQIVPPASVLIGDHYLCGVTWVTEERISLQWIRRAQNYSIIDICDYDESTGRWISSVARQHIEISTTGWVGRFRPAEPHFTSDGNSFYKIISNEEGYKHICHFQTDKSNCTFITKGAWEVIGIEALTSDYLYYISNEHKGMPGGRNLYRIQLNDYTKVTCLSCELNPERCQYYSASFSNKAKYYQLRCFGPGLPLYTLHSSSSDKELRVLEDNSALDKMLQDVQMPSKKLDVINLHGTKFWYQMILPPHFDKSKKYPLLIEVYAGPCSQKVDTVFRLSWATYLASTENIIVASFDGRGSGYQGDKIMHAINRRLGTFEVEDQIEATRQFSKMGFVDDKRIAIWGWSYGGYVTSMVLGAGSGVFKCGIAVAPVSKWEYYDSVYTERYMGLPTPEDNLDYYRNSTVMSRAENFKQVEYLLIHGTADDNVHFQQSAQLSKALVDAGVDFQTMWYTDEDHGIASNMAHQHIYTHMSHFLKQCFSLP
Procedure: Briefly, a reaction containing 50 μmol sodium Hepes (pH 7.8), 10 μmol Ala-Pro-p-nitroanilide, 6 milliunits of DP-IV, and 2% (vol/vol) dimethylformamide in a total volume of 1.0 ml. The reaction was initiated by the addition of enzyme and reaction rates were measured at 25° C.
Th rates of DP-IV-catalyzed hydrolysis of Ala-Pro-p-nitroanilide were determined at 3 to 5 different concentration of Ala-boroPro Pro-boroPro, boroPro and N-Boc-Ala-boroPro.

[3] = biological target: T2, DP-IV from human placenta (Homo sapiens, UniProt P27487); assay: DP-IV inhibition, enzyme from human placenta; format: biochemical
T2 construct: and from human placenta by the method of Puschel et al; from tissue; host or cells: human placenta
T2 sequence (P27487 whole entry): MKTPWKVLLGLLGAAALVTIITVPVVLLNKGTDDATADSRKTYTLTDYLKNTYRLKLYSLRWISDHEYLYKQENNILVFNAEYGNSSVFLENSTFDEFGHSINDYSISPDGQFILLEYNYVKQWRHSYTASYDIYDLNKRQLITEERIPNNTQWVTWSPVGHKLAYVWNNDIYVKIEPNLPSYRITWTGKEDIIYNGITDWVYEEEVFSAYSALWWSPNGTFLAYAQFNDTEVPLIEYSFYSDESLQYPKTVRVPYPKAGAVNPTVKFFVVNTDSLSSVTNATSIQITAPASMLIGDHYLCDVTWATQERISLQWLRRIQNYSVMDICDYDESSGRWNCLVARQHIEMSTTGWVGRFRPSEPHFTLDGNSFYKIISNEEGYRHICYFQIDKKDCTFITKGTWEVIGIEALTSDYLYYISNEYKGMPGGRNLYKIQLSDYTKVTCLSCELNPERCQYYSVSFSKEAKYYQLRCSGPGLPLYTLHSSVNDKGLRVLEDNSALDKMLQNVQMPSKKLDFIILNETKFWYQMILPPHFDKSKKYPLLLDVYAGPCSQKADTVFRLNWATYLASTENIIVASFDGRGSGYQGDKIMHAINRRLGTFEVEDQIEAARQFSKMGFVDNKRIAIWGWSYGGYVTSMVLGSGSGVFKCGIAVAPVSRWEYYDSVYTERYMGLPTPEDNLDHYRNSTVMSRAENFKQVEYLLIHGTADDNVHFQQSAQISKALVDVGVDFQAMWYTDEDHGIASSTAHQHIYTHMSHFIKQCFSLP

Question: For `C[C@H](N)C(=O)N1CCCC1B(O)O` (mixture of isomers) [Ala-boroPro, H-Ala-boroPro], which “Suppression of HIV (p24 antigen)” value (HIV-1-IIIB in A3.5 cells; A3.5 cells infected with HIV-1-IIIB) is on record?
Answer: suppresses HIV below detectable levels

Question: What about the half-life [1] of the same compound?
Answer: ~0.5 h

Question: Which Ki [2] does the source give for `O=C([C@@H]1CCCN1)N1CCCC1B(O)O` (mixture of isomers) [Pro-boroPro, H-Pro-boroPro] here?
Answer: 0.003 µM

Question: And the “Ki for DP-IV (in words)” value ([2]; pig kidney DP-IV)?
Answer: nanomolar range

Question: And the “Affinity for DP-IV, fold less than that of H-Ala-boroPro” value ([2]; relative to H-Ala-boroPro)?
Answer: about 10 fold

Question: And the half-life [1]?
Answer: ~1.5 h

Question: And the “Inhibition of DP-IV from human placenta compared with pig kidney enzyme” value [3]?
Answer: equally well

Question: For `Cc1cn([C@H]2C[C@H](N=[N+]=[N-])[C@@H](CO)O2)c(=O)[nH]c1=O` [AZT, zidovudine, reference compound], which “Anti-HIV effect (p24 antigen)” value (HIV-1-IIIB in A3.5 cells; 1 μM, A3.5 cells) is on record?
Answer: anti-HIV effect

Question: Which results are given for `OB(O)C1CCCN1` (stereo not shown) [BoroPro, boroProline]?
Answer: Ki [2]: 110 µM; Decrease in affinity on going from Ala-boroPro or Pro-boroPro ([2]; relative to Ala-boroPro or Pro-boroPro, Table 1): 10^5–10^6

Question: For `CC(NC(=O)OC(C)(C)C)C(=O)N1CCCC1B(O)O` (stereo not drawn) [N-Boc-Al-boroPro, N-Boc-Ala-boroPro], which Ki [2] is on record?
Answer: > 1000 µM

Question: And the “Inhibition of / affinity for DP-IV (in words)” value [2]?
Answer: abolished inhibition

Question: And the “Inhibition of / affinity for DP-IV (in words)” value ([2]; listed as Boc-blocked Ala-boroPr)?
Answer: no affinity
